According to patent publication US20200353038A1, “PIF-TRANSFECTED CELLS AND METHODS OF USE” (BIOINCEPT, LLC, priority 2013, published 2020):

Assays:
HEK293 cells = experiment: Transient transfection in HEK293 cells, toxicity; assay type: cell-based, human; conditions: intracellular expression, cultured for more than 72 hrs
[1] = target: outer dense fiber of the sperm tail-2 (ODF2L) (Homo sapiens, UniProt Q9ULJ1); conditions: ProtoArray, minor binding target
Experimental: (§1) Unbound probe was washed off, and arrays were assessed by a fluorescence microarray scanner. […] As a negative control, an array was incubated with wash buffer while calmodulin kinase was used as a positive control detected by Alexa Fluor 647-conjugated anti-VS antibody.

[2] = target: Tissue-Specific Transplantation Antigen P35 (FX Enzyme) (Homo sapiens, UniProt Q13630); conditions: ProtoArray
Sequence of Tissue-Specific Transplantation Antigen P35 (FX Enzyme) (Q13630 whole entry): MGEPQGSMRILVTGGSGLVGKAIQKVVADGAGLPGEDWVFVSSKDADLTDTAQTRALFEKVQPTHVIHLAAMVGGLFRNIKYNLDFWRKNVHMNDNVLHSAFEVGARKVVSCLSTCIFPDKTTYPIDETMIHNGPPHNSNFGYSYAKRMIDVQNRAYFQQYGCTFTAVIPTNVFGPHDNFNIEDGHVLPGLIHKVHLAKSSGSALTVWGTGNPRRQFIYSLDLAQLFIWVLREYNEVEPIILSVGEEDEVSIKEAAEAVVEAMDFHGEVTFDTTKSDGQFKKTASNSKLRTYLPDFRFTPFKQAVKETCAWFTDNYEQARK
Experimental: as §1

ITK = ITK (Homo sapiens, UniProt Q08881); conditions: ProtoArray
Sequence of ITK (Q08881 whole entry): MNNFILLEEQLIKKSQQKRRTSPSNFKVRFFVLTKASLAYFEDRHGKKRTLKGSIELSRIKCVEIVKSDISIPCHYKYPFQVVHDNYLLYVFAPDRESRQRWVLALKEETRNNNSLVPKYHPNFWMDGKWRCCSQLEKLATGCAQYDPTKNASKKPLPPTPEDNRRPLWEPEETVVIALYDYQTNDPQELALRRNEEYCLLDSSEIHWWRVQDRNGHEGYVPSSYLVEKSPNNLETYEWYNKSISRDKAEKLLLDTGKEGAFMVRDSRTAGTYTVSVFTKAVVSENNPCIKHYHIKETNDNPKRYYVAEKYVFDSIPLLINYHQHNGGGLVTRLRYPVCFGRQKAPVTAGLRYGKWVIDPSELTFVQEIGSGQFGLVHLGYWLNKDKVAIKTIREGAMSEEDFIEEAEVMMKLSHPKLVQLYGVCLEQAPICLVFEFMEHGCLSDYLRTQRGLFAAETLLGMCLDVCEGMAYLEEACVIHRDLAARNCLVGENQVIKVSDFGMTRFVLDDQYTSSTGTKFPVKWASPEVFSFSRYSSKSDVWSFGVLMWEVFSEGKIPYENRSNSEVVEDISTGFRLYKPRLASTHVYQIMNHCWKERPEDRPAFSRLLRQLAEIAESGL
Experimental: as §1

NEK11 = NEK11 (Homo sapiens, UniProt Q8NG66); conditions: ProtoArray, minor binding target
Sequence of NEK11 (Q8NG66 whole entry): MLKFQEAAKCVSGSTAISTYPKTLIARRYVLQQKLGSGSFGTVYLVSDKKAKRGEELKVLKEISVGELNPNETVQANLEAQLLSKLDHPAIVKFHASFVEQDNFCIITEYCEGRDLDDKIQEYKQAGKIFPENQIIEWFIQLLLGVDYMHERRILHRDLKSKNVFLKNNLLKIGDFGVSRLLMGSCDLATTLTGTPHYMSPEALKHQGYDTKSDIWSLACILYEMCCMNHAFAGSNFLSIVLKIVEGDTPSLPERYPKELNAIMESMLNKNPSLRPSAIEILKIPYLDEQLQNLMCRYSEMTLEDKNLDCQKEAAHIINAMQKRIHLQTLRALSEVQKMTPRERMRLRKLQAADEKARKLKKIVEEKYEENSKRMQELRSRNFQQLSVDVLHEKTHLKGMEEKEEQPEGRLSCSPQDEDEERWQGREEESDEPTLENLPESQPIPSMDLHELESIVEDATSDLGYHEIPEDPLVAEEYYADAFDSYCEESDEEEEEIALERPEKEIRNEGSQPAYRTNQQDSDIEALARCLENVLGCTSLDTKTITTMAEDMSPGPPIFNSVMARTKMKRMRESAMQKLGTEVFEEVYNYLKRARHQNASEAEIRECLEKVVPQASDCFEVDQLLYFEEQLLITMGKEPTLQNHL
Experimental: as §1

Cass4 = Cass4 (Homo sapiens, UniProt Q9NQ75); conditions: ProtoArray, minor binding target
Sequence of Cass4 (Q9NQ75 whole entry): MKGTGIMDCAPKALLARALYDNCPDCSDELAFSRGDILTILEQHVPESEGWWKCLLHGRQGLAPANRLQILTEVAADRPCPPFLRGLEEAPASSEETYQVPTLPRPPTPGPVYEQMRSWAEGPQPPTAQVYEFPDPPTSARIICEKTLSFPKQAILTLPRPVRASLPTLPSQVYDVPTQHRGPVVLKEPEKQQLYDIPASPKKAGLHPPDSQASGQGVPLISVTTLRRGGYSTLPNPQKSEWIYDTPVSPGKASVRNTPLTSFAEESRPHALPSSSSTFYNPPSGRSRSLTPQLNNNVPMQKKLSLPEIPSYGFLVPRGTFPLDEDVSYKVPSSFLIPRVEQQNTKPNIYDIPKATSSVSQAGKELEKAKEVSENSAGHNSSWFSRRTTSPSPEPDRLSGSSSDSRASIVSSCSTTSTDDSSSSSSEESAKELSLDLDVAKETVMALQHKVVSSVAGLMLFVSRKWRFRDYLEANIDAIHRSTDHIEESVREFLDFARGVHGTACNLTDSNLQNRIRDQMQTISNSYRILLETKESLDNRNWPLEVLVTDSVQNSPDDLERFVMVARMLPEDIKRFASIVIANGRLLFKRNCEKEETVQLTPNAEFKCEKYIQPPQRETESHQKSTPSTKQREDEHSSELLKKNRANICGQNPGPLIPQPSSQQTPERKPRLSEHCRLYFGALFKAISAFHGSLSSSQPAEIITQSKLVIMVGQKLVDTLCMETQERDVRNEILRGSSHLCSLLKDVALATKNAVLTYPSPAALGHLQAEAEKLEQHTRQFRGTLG
Experimental: as §1

DAPK3, (ZIPK) = DAPK3, (ZIPK) (Homo sapiens, UniProt O43293); conditions: ProtoArray, minor binding target
Sequence of DAPK3, (ZIPK) (O43293 whole entry): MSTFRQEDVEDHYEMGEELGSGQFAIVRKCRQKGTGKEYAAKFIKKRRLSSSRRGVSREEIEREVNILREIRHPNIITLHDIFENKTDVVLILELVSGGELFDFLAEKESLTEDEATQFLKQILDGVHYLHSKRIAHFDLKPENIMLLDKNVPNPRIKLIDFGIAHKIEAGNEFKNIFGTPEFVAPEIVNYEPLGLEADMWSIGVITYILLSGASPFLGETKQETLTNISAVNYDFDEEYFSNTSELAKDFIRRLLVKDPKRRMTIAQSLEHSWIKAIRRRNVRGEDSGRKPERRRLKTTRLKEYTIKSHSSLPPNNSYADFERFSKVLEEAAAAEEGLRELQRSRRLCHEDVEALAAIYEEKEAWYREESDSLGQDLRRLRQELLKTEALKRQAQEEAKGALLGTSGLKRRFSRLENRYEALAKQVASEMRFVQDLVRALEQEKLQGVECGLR
Experimental: as §1

[3] = target: Platelet-Derived Growth Factor-β(PDGFP) (Homo sapiens, UniProt P01127); conditions: ProtoArray
Sequence of Platelet-Derived Growth Factor-β(PDGFP) (P01127 82-190): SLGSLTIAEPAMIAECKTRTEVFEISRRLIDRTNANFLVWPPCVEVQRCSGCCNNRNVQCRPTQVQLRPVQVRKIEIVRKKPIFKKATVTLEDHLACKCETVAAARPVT
Experimental: as §1

Clorf87 = Clorf87 (Homo sapiens, UniProt Q8N0U7); conditions: ProtoArray, minor binding target
Sequence of Clorf87 (Q8N0U7 whole entry): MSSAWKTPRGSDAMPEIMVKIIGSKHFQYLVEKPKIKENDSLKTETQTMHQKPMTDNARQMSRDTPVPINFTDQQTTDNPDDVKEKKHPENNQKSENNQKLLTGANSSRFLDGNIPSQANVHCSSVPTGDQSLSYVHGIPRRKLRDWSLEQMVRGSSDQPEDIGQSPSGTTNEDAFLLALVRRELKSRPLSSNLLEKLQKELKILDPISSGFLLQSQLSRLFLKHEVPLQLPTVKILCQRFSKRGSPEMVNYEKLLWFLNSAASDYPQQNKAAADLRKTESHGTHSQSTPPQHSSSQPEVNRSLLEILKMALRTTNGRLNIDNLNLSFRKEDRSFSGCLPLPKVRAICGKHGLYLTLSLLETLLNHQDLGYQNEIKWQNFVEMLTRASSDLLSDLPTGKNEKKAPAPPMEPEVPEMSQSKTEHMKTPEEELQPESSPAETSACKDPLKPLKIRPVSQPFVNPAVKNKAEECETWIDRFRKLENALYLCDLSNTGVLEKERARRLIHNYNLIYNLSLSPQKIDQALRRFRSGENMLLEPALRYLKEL
Experimental: as §1

PBMCs = test system: PBMCs
Description: Blood samples without identifiers were obtained from males and nonpregnant females after obtaining consent at MDSPS, WA. The studies were approved by the ethical committee at the institute. From the excess specimen, PBMCs were isolated using standard Ficoll Hypaque, a density gradient method. […] Samples were collected in duplicate at 24 and 48 hrs and used for global mRNA analysis.
After culture, PBMCs were collected and the chemically fragmented cRNA was then hybridized on Affymetrix HGU133 Plus 2.0 human chips in a GeneChip Hybridization Oven 640 (Affymetrix) and screened for 18,400 human genes and expressed-sequence tags, followed by fluorescence labeling with Fluidics Station 450 (Affymetrix) and optical scanning with an Affymetrix GeneChip Scanner 3000 (Codon Biosciences, LP, Houston, Tex.). P0.05 and >2-fold changes were considered as significant. Data is deposited at NCBI Geo (GSE18291).
For gene experiments, data was first analyzed using student's t-test, with p<0.05 results, followed by fold-change testing, with a cutoff 2-fold only reported.

IDE = target: T1, IDE (Homo sapiens, UniProt P14735); experiment: ProtoArray binding, IDE
T1 construct: purchased Invitrogen

female Swiss mice = conditions: Alzet pump subcutaneously, PIF 4.2 mg/ml (1 mg/kg/die), read days 14-16 pi
Experimental: 30 Swiss female mice and 30 Swiss male mice, 8-10 weeks old, were matched overnight for three consecutive days. The next morning, the presence of a vaginal plug was verified. 20 female Swiss mice positive for the vaginal plug were selected for the experiment.
Mice at days 1-3 post-insemination (pi) were anesthetized with ketamine and domitor 200 μl. […] The mice were located singularly in separated cages. […] At days 6-8 pi, the mice were treated with LPS […] or with PBS. At days 14-16 pi, the mice were euthanized and investigated for vital fetuses and for aborts. Mice with no vital fetuses nor signs of abortion were considered to carry 10 aborts for statistical purposes. The groups were compared with Fisher exact test, p<0.05 was considered significant (FIG. 22).

Kv1.3b = experiment: ProtoArray binding, Kv1.3b; parameters: species or system human
Sequence of Kv1.3b (Q13303 40-367 limits assumed): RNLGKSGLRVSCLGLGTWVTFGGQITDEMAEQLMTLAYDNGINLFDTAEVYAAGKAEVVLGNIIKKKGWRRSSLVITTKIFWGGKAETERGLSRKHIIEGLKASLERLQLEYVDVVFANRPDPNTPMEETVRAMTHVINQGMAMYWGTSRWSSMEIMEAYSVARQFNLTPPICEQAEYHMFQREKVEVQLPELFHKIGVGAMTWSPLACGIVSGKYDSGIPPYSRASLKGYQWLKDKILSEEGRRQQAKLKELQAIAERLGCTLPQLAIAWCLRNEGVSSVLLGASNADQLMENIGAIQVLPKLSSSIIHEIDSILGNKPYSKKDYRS

[4] = test system: 9000 human protein targets; experiment: Alexa-PIF interaction with ProtoArray Human Protein Microarrays v5.0; assay type: binding; conditions: PIF-Alexa 647 250 nM and 2.5 pM; protein not named
[5] = cell state not given, PIF 50 nM
[6] = following co-activation (anti-CD3/anti-CD28), PIF 50 nM
[7] = naive cells (by context), PIF 50 nM
[8] = naive cells, PIF 50 nM, up to 48 hrs

Sequence of outer dense fiber of the sperm tail-2 (ODF2L) (Q9ULJ1 whole entry): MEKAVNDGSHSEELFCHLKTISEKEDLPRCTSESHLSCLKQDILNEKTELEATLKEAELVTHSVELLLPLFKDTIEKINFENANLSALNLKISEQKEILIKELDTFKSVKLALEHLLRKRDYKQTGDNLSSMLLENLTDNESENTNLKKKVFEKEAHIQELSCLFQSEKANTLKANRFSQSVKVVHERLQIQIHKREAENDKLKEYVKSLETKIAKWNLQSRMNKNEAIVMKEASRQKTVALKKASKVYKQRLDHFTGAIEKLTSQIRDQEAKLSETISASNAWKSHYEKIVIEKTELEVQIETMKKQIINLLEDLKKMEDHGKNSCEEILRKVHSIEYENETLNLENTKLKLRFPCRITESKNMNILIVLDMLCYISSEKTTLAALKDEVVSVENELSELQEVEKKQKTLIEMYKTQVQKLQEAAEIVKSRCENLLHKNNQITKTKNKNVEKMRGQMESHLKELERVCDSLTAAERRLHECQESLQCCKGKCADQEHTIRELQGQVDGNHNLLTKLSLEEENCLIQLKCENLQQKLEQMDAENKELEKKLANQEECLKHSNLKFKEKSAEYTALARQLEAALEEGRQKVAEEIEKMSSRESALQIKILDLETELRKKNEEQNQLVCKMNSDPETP

Substance: DYKDDDDKGGGMVRIKPGSANKPSDDGGYPYDVPDYA (FLAG-(Gly)2-PIF-(Gly)2-HA) [FLAG-HA tagged PIF peptide]
- toxicity or cell death of transfected cells (HEK293 cells): without signs of toxicity or cell death

Substance: MVRIKPGSANKPSDD [PIF]
- binding to ODF2L, in words [1]: observed
- binding to FX enzyme, in words [2]: Targets
- binding to ITK, in words (ITK): Targets
- binding to NEK11, in words (NEK11): bind
- binding to Cass4, in words (Cass4): target
- binding to DAPK3 (ZIPK), in words (DAPK3, (ZIPK)): targets
- binding to PDGFb, in words [3]: Targets
- binding to Clorf87, in words (Clorf87): target
- IDE encoding gene expression (PBMCs; PBMCs exposed to PIF): not affected
- Kv1.3b channel genes expression (PBMCs; PBMCs exposed to PIF): only minimally affected
- six additional macropain genes family members, expression (FIG. 21) (PBMCs; PBMCs, PIF 50 nM): upregulated
- ADAM 17 gene expression (PBMCs; activated cells (by context), PIF 50 nM): −2.2 fold
- CDC42 gene expression (PBMCs; activated cells, PIF 50 nM): −2.2 fold
- MCM2 gene expression (PBMCs; activated cells, PIF 50 nM): 2.8 fold
- SPEC 1 gene expression (PBMCs; activated cells, PIF 50 nM): −2.2 fold
- TSTA3 (FX) gene expression (PBMCs; activated cells, PIF 50 nM): 3.6 fold
- cell division cycle 25A (CDC25A) gene expression (PBMCs; activated cells, PIF 50 nM): 6 fold
- osteonectin gene expression (PBMCs; activated cells, PIF 50 nM): −2.2 fold
- H2A O/L gene expression (decrease) (PBMCs; [5]): 2 fold
- H2A gene expression (decrease) (PBMCs; [5]): 4.2 fold
- H3F3A gene expression (PBMCs; [5]): −3 fold
- ATP1B1 gene expression (PBMCs; following activation, PIF 50 nM): −2.4 fold
- IGFBP6 gene expression (PBMCs; [6]): −2.4 fold
- UDP-glucose dehydrogenase (UGDH) gene expression (PBMCs; [6]): −2 fold
- insulin receptor (INSR) gene expression (PBMCs; [6]): −2.8 fold
- macropain 26S subunit, non-ATPase, 10 (PSMD10) gene expression (PBMCs; [6]): 2.4 fold
- SCN12 gene expression (PBMCs; [7]): 5.4 fold
- SCNA1 (Na+ voltage-gated Al) gene expression (PBMCs; [7]): 7.8 fold
- ITK expression, in words (PBMCs; naive cells as printed (last sentence of b342)): mildly decreased
- ITK gene expression (PBMCs; naive cells, PIF 50 nM): 1.6 fold
- K+ channel (KCNK4) gene expression (PBMCs; naive cells, PIF 50 nM): 2.8 fold
- IGF-binding protein-3 (IGF219 BP3) gene expression (PBMCs; [8]): 4.6 fold
- insulin-like growth factor-1 (IGF1) gene expression (PBMCs; [8]): 2.8 fold
- binding to IDE, in words (IDE; ProtoArray): prime PIF peptide target
- LPS-induced abortion (female Swiss mice; LPS 0.1 pg/gr days 6-8 pi): decreases
- anesthesia-induced abortion (female Swiss mice; ketamine and domitor): prevents
- binding to Kv1.3b channels, in words (Kv1.3b; ProtoArray): targets

Substance: PIF-Alexa 647: Alexafluor647 conjugate of synthetic PIF (MVRIKPGSANKPSDD)
- Z-Score of one of the 11 interacting proteins [4]: greater than 3
- Z score (IDE; PIF-Alexa 647 250 nM and 2.5 pM): greater than 2
- Z score (Kv1.3b; Kv1.3b two variants, PIF-Alexa 647 250 nM and 2.5 pM): greater than 2
